Experimental findings from patent US11667636B2, “Modulators of Mas-related G-protein receptor X2 and related products and methods” (Escient Pharmaceuticals, Inc., priority 2020, dated 2023) are described below.

Where only a bound is given, the exact number is not on record here.

This assay concerns the target T1, human MRGPRX2 (Homo sapiens, UniProt Q96LB1).
T1 construct: expressed in transfected cells
T1 sequence (Q96LB1 1-330): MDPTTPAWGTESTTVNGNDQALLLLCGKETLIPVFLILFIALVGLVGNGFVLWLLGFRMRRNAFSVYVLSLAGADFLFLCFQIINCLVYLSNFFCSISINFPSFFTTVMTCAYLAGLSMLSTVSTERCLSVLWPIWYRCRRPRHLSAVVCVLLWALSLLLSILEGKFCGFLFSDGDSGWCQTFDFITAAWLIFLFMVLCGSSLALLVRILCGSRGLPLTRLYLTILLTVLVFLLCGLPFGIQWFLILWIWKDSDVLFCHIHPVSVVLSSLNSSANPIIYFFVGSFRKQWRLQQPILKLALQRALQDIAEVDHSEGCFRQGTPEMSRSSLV
Kind of assay: MRGPRX2 Activity: IP-One HTRF antagonist assay in CHO cells stably expressing human MRGPRX2, versus Cortistatin-14. Format: cell-based. The note with it: versus 0.3 uM Cortistatin-14 agonist, IP-1 HTRF, read-out: MRGPR2 Antagonist Activity. The method, then: CHO cells stably transfected to express human MRGPRX2 were maintained in an incubator at 37° C. with 5% CO2 and grown in F12 (HAM) media with 10% fetal bovine serum (FBS), 1% Glutamax, 1% penicillin/streptomycin, 800 μg/mL Geneticin (G418), and 300 μg/mL Hygromycin B. Cells were plated in a 384-well assay plate at 20,000 cells per well in 12 μL of Opti-MEM and kept in an incubator overnight. On the day of the assay, compounds solubilized at 10 mM in DMSO were added as a 10-point curve (30 uM final top concentration with 1:3 serial dilutions) using a Tecan D300E digital dispenser. Agonists were diluted in assay buffer (final concentrations of 5.7 mM Tris-HCl, 43 mM NaCl, 50 mM LiCl, pH=8) and 2 μL of the agonist Cortistatin-14 (CPC Scientific, catalog CORT-002) are added to each well. Final concentrations of agonists were 0.3 μM Cortistatin-14. Final concentrations of DMSO were kept consistent across the plate. Plates were incubated in the dark for 1 hr at 37° C. and then for 1 hr at room temperature. IP-1 standards and HTRF detection reagents were added according to the IP-One-Gq Kit purchased from Cisbio (part number 62IPAPEJ) and incubated in the dark for 1 hr at room temperature. The plate was read on a Molecular Devices SpectraMax iD5 plate reader. The HTRF ratio was calculated from the raw data and graphed using GraphPad Prism to calculate an IC50 value for each compound.
The activity ranges are denoted as follows: “+++++” denotes antagonist activity <50 nM; “++++” denotes antagonist activity between 51 and 100 nM; “+++” denotes activity between 101 and 500 nM; “++” denotes activity between 501 and 1000 nM; and “+” denotes activity >1000 nM
A general note: In TR-FRET formats the signal depends on donor and acceptor labels being close together.
Regarding `Cc1cc(C(=O)N[C@H]2CC[C@@H](Nc3cccc4nc(C(F)F)cn34)CC2)cn1C(F)F` [2-221], the IC50 was < 50 nM.
With `Cc1nc2cccc(C(=O)N[C@H]3CC[C@@H](Nc4cccc5nc(C(F)(F)F)cn45)CC3)c2s1` [2-169], the IC50 was < 50 nM.
Turning to `N#Cc1cc2c(N[C@H]3CC[C@@H](NC(=O)c4ccc(F)cc4)CC3)cccc2s1` [1-20], the IC50 lay within 51 to 100 nM.
As for `CCn1ncc(C(=O)N[C@H]2CC[C@@H](Nc3cccc4nc(C(F)(F)F)cn34)CC2)c1Cl` [2-292], the IC50 was in the range of 101 to 500 nM.
To `O=C(N[C@H]1CC[C@@H](Nc2cccc3nc(C(F)(F)F)cn23)CC1)c1ccc(C(F)F)cc1` [2-179] belongs < 50 nM; to `COc1ccc(C(=O)N[C@@H]2CCC[C@H](Nc3cc(Cl)cc4nc(C(F)(F)F)cn34)C2)cc1` [1-30], 51 to 100 nM; to `COc1ccc(C(=O)N[C@@H]2CCC[C@H](Nc3cccc4sc(C(F)(F)F)cc34)C2)cc1` [Example 2, 4-methoxy-N-((1R,3S)-3-((2-(trifluoromethyl)benzo[b]thiophen-4-yl)amino)cyclohexyl)benzamide], 101 to 500 nM.
`O=C(N[C@H]1CC[C@@H](Nc2cccc3nc(C(F)(F)F)cn23)CC1)c1ccnc2cn[nH]c12` [2-126]: the IC50 was < 50 nM.
For `CC(C#N)c1cccc(C(=O)N[C@H]2CC[C@@H](Nc3cccc4sc(C(F)(F)F)cc34)CC2)c1` (some centres unmarked) [2-5], the IC50 is 101 to 500 nM.
For the compound `O=C(N[C@H]1CC[C@@H](Nc2cccc3nc(C(F)(F)F)cn23)CC1)c1ccc(OCCF)cc1` [2-230], the IC50 is < 50 nM.
With `NS(=O)(=O)c1ccc(C(=O)N[C@H]2CC[C@@H](Nc3cccc4nc(C(F)(F)F)cn34)CC2)cc1` [2-204], the IC50 is < 50 nM.
In the case of `COc1ccc(C(=O)N[C@H]2CC[C@@H](Nc3cccc4nc(C(F)F)cn34)CC2)c(Cl)c1` [2-148] it was 51 to 100 nM; in that of `CN(CC(F)F)c1ccc(C(=O)N[C@H]2CC[C@@H](Nc3cccc4nc(C(F)(F)F)cn34)CC2)cc1` [2-181], < 50 nM.
Regarding `COc1ccc(C(=O)N[C@@H]2CCC[C@H](Nc3cccc4sc(OC)cc34)C2)cc1` [1-14], the IC50 is > 1000 nM.
To `O=C(N[C@H]1CC[C@@H](Nc2cccc3nc(C(F)(F)F)cn23)CC1)c1ccnc2[nH]ccc12` [2-168] belongs < 50 nM; to `O=C(N[C@H]1CC[C@@H](Nc2cccc3nc(C(F)(F)F)cn23)CC1)c1cn(C(F)F)nc1Cl` [2-297], < 50 nM; to `O=C(N[C@H]1CC[C@@H](Nc2cccc3nc(C(F)F)cn23)CC1)c1cn(C(F)(F)F)nc1Cl` [2-295], 51 to 100 nM.
For the compound `Cn1cc(C(=O)N[C@H]2CC[C@@H](Nc3cccc4nc(C(F)(F)F)cn34)CC2)c(N)n1` [2-246], the IC50 is < 50 nM.
As to `O=C(N[C@H]1CC[C@@H](Nc2cccc3nc(C(F)(F)F)cn23)CC1)c1cnn(CC(F)F)c1C(F)F` [2-284], the IC50 fell in the range of 101 to 500 nM.
As to `O=C(N[C@H]1CC[C@@H](Nc2cccc3nc(C(F)(F)F)cn23)CC1)c1n[nH]c2ccccc12` [2-9], the IC50 lay in the range of 101 to 500 nM.
As to `O=C(N[C@H]1CC[C@@H](Nc2cccc3nc(C(F)(F)F)cn23)CC1)c1ccn(CC(F)F)n1` [2-135], the IC50 is < 50 nM.
As for `Cn1ncc(C(=O)N[C@H]2CC[C@@H](Nc3cccc4nc(C(F)(F)F)cn34)CC2)c1C1CC1` [2-245], the IC50 was in the range of 101 to 500 nM.
Take `CC(C)Oc1ccc(C(=O)N[C@H]2CC[C@@H](Nc3cccc4nc(C(F)(F)F)cn34)CC2)cc1Cl` [2-207]: the IC50 is 101 to 500 nM.
As for `N#Cc1cccc(C(=O)N[C@H]2CC[C@@H](Nc3cccc4sc(C(F)(F)F)cc34)CC2)c1` [Example 5, 3-cyano-N-((1 S,4S)-4-((2-(trifluoromethyl)benzo[b]thiophen-4-yl)amino)cyclohexyl)benzamide], the IC50 was in the range of 101 to 500 nM.
In the case of `CNc1ccc(C(=O)N[C@H]2CC[C@@H](Nc3cccc4nc(C#N)cn34)CC2)cc1` [2-259] it was 101 to 500 nM; in that of `Cn1cc(C(=O)NC2CCC(Nc3cccc4nc(C(F)(F)F)cn34)CC2)c2ccccc21` (centres unmarked) [2-289], < 50 nM.
To `CCn1cc(C(=O)N[C@H]2CC[C@@H](Nc3cccc4nc(C(F)(F)F)cn34)CC2)c(Cl)n1` [2-293] belongs < 50 nM; to `O=C(N[C@H]1CC[C@@H](Nc2cccc3nc(C(F)(F)F)cn23)CC1)c1cn(CC(F)(F)F)nc1C(F)F` [Example 9, 3-(difluoromethyl)-1-(2,2,2-trifluoroethyl)-N-[4-[[2-(trifluoromethyl)imidazo[1,2-a]pyridin-5-yl]amino]cyclohexyl]pyrazole-4-carboxamide], < 50 nM.
For the compound `O=C(N[C@H]1CC[C@@H](Nc2cccc3nc(C(F)(F)F)cn23)CC1)c1ccc(-n2cnnn2)cc1` [2-202], the IC50 is < 50 nM.
On to `Cc1ncc(C(=O)N[C@H]2CC[C@@H](Nc3cccc4nc(C(F)(F)F)cn34)CC2)n1C` [2-134], for which the IC50 lay in the range of 101 to 500 nM.
`COc1ccc(C(=O)N[C@H]2CC[C@@H](Nc3cccc4nc(C(F)F)cn34)CC2)c(F)c1` [2-27]: the IC50 fell in the range of 101 to 500 nM.
In the case of `Nc1nn(CC(F)(F)F)cc1C(=O)N[C@H]1CC[C@@H](Nc2cccc3nc(C(F)(F)F)cn23)CC1` [Example 7, 3-amino-1-(2,2,2-trifluoroethyl)-N-[4-[[2-(trifluoromethyl)imidazo[1,2-a]pyridin-5-yl]amino]cyclohexyl]pyrazole-4-carboxamide] it was < 50 nM; in that of `O=C(N[C@H]1CC[C@@H](Nc2cccc3nc(C(F)(F)F)cn23)CC1)c1cnc[nH]1` [2-11], 101 to 500 nM; in that of `COc1ccc(C(=O)N[C@@H]2CCC[C@H](Nc3cccc4sc(C(C)=O)cc34)C2)cc1` [1-4], > 1000 nM.
Turning to `O=C(N[C@H]1CC[C@@H](Nc2cccc3nc(C(F)F)cn23)CC1)c1c[nH]nc1NCC(F)F` [2-194], the IC50 is < 50 nM.
Turning to `CCOc1cc(C(=O)N[C@H]2CC[C@@H](Nc3cccc4nc(C(F)(F)F)cn34)CC2)ccn1` [2-15], the IC50 was 101 to 500 nM.
On to `N#Cc1nn(C(F)F)cc1C(=O)N[C@H]1CC[C@@H](Nc2cccc3nc(C(F)(F)F)cn23)CC1` [2-229], for which the IC50 was < 50 nM.
For the compound `CCc1cc(C(=O)N[C@H]2CC[C@@H](Nc3cccc4nc(C(F)(F)F)cn34)CC2)nn1CC` [2-190], the IC50 was 101 to 500 nM.
To `Cn1cc(C(=O)N[C@H]2CC[C@@H](Nc3cccc4nc(C(F)F)cn34)CC2)c(NCC(F)F)n1` [2-288] belongs < 50 nM; to `O=C(N[C@H]1CC[C@@H](Nc2cccc3nc(C(F)(F)F)cn23)CC1)c1ccc(NCC(F)(F)F)cc1` [2-23], < 50 nM; to `Cc1cc2c(C(=O)N[C@H]3CC[C@@H](Nc4cccc5nc(C(F)(F)F)cn45)CC3)cccc2n1C` [2-198], < 50 nM.
As to `COc1cccc2cc(C(=O)N[C@H]3CC[C@@H](Nc4cccc5nc(C(F)(F)F)cn45)CC3)oc12` [2-166], the IC50 was in the range of 51 to 100 nM.
Take `Cc1n[nH]cc1C(=O)N[C@H]1CC[C@@H](Nc2cccc3nc(C(F)(F)F)cn23)CC1` [2-138]: the IC50 was < 50 nM.
Regarding `O=C(N[C@H]1CC[C@@H](Nc2cccc3nc(C(F)F)cn23)CC1)c1cccc2[nH]c(C(F)F)nc12` [2-151], the IC50 is 101 to 500 nM.
Regarding `O=C(N[C@H]1CC[C@@H](Nc2cccc3nc(C(F)(F)F)cn23)CC1)c1cccc2[nH]ccc12` [2-232], the IC50 is < 50 nM.
In the case of `O=C(N[C@H]1CC[C@@H](Nc2cccc3nc(C(F)F)cn23)CC1)c1ccc(C(F)F)cc1` [2-285] it was 51 to 100 nM.
In the case of `O=C(N[C@H]1CC[C@@H](Nc2cccc3nc(C(F)F)cn23)CC1)c1cncs1` [2-147] it was 101 to 500 nM; in that of `Cc1c(C(=O)N[C@H]2CC[C@@H](Nc3cccc4nc(C(F)(F)F)cn34)CC2)c2ccccc2n1C` [2-227], 101 to 500 nM; in that of `COc1cccc(C(=O)N[C@H]2CC[C@@H](Nc3cccc4nc(C#N)cn34)CC2)c1` [2-260], 101 to 500 nM.
For the compound `O=C(N[C@H]1CC[C@@H](Nc2cccc3nc(C(F)F)cn23)CC1)c1cn(C(F)F)nc1C(F)F` [2-220], the IC50 is < 50 nM.
Take `CC(=O)Nc1cccc(C(=O)N[C@H]2CC[C@@H](Nc3cccc4sc(C(F)(F)F)cc34)CC2)c1` [2-2]: the IC50 was > 1000 nM.
To `O=C(N[C@H]1CC[C@@H](Nc2cccc3nc(C(F)F)cn23)CC1)c1ccnc(NCC(F)F)c1` [2-150] belongs < 50 nM.
As to `Cn1cc(C(=O)N[C@H]2CC[C@@H](Nc3cccc4nc(C(F)(F)F)cn34)CC2)c2c(Cl)cccc21` [2-291], the IC50 is < 50 nM.
